Results on ten compounds are retold here after patent US20230150974A1 (Foghorn Therapeutics Inc., priority 2020, published 2023).

SMILES strings stand for the structures. Structures can show the parent of a compound that is named as a salt.

In one experiment the target is T1, HiBiT-BRM (Homo sapiens, UniProt P51531).
T1 construct: expressed in transfected cells
As to the kind of experiment: HiBiT-BRM cell-based degradation assay (Nano-Glo HiBiT Lytic Detection). To be noted: HeLa cells expressing HiBiT-BRM, 24 h; for DC50: read-out: BRM HiBit Degradation IC50. On the procedure: (§1) Procedure: A stable HeLa cell line expressing HiBiT-BRM was generated. On day 0, 5000 cells were seeded in 40 μL of media into each well of 384-well cell culture plates. […] Subsequently plates were incubated for 24 h in a standard tissue culture incubator and equilibrated at room temperature for 15 minutes. Nano-Glo HiBiT Lytic Detection System (Promega N3050) reagent was freshly prepared and 20 ul was added to each well. Upon addition of this LgBit-containing reagent, the HiBiT and LgBiT proteins associate to form the luminescent NanoBiT luciferase. The plates were shaken for 10 minutes at room temperature and the bioluminescence read using an EnVision plate reader (PerkinElmer).
(§2) The degradation % was calculated using the following formula: % degradation=100%−100%×(LumSample−LumLC)/(LumHC−LumLC). DMSO treated cells are employed as High Control (HC) and 2 μM of a known BRM/BRG1 degrader standard treated cells are employed as Low Control (LC).

Another experiment concerns the target T2, HiBit-BRG1 (Homo sapiens, UniProt P51532).
T2 construct: expressed in transfected cells
Nature of the experiment: HiBit-BRG1 cell-based degradation assay (Nano-Glo HiBiT Lytic Detection). To be noted: HeLa cells expressing HiBit-BRG1 and LgBit, 24 h; for DC50: read-out: BRG1 HiBit Degradation IC50; for Dmax: read-out: BRG1 HiBit Degradation Maximum (%). On the procedure: as §1
For measurement of BRG1 degradation, a stable HeLa cell line expressing HiBit-BRG1 and LgBit was generated. The same protocol as above was then followed.
as §2
A general note: The HiBiT peptide binds its large partner to form an active luciferase.

T1 sequence (P51531 whole entry): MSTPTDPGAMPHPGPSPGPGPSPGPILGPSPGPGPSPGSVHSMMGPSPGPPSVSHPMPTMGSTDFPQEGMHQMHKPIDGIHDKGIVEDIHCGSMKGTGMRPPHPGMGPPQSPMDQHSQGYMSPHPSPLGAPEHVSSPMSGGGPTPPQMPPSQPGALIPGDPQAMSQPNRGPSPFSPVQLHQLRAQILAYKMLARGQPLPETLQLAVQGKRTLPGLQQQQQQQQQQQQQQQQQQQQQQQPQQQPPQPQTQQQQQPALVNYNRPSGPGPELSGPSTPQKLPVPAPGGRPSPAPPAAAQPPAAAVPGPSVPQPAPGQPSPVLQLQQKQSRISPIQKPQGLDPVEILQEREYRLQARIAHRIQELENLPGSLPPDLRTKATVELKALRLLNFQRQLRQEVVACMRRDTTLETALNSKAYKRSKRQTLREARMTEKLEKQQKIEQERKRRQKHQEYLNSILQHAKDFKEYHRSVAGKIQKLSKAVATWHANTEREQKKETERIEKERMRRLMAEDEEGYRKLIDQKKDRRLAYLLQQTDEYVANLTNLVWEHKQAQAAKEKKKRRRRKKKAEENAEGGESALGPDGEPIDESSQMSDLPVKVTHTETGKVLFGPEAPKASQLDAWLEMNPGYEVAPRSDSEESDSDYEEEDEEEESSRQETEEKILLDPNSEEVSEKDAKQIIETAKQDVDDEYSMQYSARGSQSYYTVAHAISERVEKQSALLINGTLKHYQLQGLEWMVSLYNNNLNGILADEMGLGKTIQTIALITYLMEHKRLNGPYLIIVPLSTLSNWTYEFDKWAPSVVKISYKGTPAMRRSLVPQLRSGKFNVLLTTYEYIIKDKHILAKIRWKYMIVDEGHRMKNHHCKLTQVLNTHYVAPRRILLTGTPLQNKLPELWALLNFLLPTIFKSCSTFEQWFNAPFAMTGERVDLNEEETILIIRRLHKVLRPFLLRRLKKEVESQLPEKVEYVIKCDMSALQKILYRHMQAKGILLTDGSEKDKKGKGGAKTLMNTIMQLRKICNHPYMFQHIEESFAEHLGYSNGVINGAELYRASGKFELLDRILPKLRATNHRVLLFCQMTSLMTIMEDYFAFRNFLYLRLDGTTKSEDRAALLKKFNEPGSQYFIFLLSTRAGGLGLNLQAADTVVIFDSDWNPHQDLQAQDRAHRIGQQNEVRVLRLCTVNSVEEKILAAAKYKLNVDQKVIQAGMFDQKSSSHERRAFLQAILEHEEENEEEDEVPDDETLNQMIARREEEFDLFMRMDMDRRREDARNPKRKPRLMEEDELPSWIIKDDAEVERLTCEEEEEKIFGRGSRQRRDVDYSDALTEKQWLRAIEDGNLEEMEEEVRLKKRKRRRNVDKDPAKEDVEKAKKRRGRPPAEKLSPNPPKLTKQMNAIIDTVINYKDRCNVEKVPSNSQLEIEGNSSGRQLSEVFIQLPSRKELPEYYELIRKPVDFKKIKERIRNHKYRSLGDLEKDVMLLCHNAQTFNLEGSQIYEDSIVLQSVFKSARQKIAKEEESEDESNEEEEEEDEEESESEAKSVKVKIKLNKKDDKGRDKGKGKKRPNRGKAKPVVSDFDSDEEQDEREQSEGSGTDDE
T2 sequence (P51532 whole entry): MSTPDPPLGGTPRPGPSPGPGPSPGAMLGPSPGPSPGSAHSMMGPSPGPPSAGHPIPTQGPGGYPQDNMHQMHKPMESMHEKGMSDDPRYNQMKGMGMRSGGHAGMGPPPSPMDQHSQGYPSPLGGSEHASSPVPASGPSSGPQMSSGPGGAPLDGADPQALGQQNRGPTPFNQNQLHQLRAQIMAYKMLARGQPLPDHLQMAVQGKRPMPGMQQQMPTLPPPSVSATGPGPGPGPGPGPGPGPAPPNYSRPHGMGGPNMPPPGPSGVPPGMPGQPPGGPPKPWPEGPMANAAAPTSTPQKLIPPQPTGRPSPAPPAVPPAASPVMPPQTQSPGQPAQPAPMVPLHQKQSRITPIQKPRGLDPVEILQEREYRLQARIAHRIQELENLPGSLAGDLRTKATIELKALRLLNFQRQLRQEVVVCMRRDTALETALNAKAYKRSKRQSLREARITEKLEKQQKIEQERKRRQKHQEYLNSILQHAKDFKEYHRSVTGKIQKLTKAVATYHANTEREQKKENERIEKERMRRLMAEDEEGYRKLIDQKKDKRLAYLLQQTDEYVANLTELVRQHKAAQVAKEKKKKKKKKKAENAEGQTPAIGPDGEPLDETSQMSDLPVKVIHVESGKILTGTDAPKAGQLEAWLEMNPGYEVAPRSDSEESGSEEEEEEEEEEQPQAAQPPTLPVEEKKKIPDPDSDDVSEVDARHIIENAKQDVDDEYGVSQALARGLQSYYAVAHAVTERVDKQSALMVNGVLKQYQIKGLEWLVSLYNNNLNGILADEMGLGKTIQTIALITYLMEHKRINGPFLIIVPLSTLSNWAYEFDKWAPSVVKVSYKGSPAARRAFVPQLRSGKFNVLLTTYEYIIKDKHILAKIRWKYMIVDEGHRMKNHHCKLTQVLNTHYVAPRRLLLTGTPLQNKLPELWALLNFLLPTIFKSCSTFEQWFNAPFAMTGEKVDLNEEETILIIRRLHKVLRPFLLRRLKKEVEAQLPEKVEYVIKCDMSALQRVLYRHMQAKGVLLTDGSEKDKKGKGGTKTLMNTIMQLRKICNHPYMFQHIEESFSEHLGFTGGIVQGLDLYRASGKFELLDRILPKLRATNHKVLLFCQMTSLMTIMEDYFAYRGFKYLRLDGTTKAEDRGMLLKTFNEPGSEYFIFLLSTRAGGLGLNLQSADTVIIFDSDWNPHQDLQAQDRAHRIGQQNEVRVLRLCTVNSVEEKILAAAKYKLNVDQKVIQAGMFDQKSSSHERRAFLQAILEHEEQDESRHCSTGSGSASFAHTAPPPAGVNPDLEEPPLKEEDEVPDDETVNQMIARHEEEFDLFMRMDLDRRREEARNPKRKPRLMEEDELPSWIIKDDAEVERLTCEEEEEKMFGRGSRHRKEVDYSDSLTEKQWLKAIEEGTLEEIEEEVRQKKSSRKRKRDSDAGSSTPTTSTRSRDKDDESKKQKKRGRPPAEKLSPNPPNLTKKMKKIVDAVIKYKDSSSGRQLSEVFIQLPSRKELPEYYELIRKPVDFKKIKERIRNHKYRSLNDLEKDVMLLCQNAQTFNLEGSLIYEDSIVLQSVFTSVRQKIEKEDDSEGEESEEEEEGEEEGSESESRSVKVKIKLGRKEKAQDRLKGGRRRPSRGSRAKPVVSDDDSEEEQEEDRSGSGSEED

Consider `Cc1ncsc1-c1ccc(CNC(=O)[C@@H]2C[C@@H](O)CN2C(=O)[C@@H](NC(=O)CCCCCCCCC(=O)NCc2ccc(CCOc3cc(-c4ccccc4O)nnc3N)cc2)C(C)(C)C)cc1` [Compound 138, N1-(4-(2-((3-amino-6-(2-hydroxyphenyl)pyridazin-4-yl)oxy)ethyl)benzyl)-N10-((S)-1-((2S,4R)-4-hydroxy-2-((4-(4-methylthiazol-5-yl)benzyl)carbamoyl)pyrrolidin-1-yl)-3,3-dimethyl-1-oxobutan-2-yl)decanediamide], for which, on HiBiT-BRM, the “BRM HiBit Degradation Maximum (%)” value was “A (“A” indicates maximum degradation ≥75%)” and the DC50 is more than 100 nM. Besides, on HiBit-BRG1, the DC50 is more than 1000 nM and the Dmax is less than 50%.

`Cc1ncsc1-c1ccc(CNC(=O)[C@@H]2C[C@@H](O)CN2C(=O)[C@@H](NC(=O)CCN2CC(C(=O)NCc3ccc(CCOc4cc(-c5ccccc5O)nnc4N)cc3)C2)C(C)(C)C)cc1` [Compound 182, (2S,4R)-1-[(2S)-2-[3-[3-([[4-(2-[[3-amino-6-(2-hydroxyphenyl)pyridazin-4-yl]oxy]ethyl)phenyl]methyl]carbamoyl)azetidin-1-yl]propanamido]-3,3-dimethylbutanoyl]-4-hydroxy-N-[[4-(4-methyl-1,3-thiazol-5-yl)phenyl]methyl]pyrrolidine-2-carboxamide]: at HiBiT-BRM, the “BRM HiBit Degradation Maximum (%)” value is reported as “C (“C” indicates maximum degradation <50%)” and the DC50 is more than 1000 nM. Also, at HiBit-BRG1, the DC50 was more than 1000 nM and the Dmax is less than 50%.

Regarding `Nc1nnc(-c2ccccc2O)cc1OCCc1ccc(CNC(=O)CCCCNc2ccc3nnn(C4CCC(=O)NC4=O)c(=O)c3c2)cc1` (stereo not shown) [Compound 125, N-(4-(2-((3-amino-6-(2-hydroxyphenyl)pyridazin-4-yl)oxy)ethyl)benzyl)-5-((3-(2,6-dioxopiperidin-3-yl)-4-oxo-3,4-dihydrobenzo[d][1,2,3]triazin-6-yl)amino)pentanamide], at HiBiT-BRM, the “BRM HiBit Degradation Maximum (%)” value is “C (“C” indicates maximum degradation <50%)” and the DC50 is more than 1000 nM. Further, on HiBit-BRG1, the DC50 is more than 1000 nM and the Dmax was more than 50%.

As to `Nc1nnc(-c2ccccc2O)cc1OCCc1ccc(CNCCCNc2cccc3c2C(=O)N(C2CCC(=O)NC2=O)C3=O)cc1` (stereo not shown) [Compound 108, 4-[[3-([[4-(2-[[3-amino-6-(2-hydroxyphenyl)pyridazin-4-yl]oxy]ethyl)phenyl]methyl]amino)propyl]amino]-2-(2,6-dioxopiperidin-3-yl)isoindole-1,3-dione, formic acid salt], on HiBiT-BRM, the “BRM HiBit Degradation Maximum (%)” value is on record as “B (“B” indicates maximum degradation ≥50%)” and the DC50 was more than 10 nM. Also, at HiBit-BRG1, the DC50 is more than 1000 nM and the Dmax was more than 50%.

Take `Cc1ncsc1-c1ccc([C@H](C)NC(=O)[C@@H]2C[C@@H](O)CN2C(=O)[C@@H](c2cc(OCCN3CCC(OC4CCN(C(=O)c5ccc(CCOc6cc(-c7ccccc7O)nnc6N)cc5)CC4)CC3)no2)C(C)C)cc1` [Compound 210, (2S,4R)-1-((R)-2-(3-(2-(4-((1-(4-(2-((3-amino-6-(2-hydroxyphenyl)pyridazin-4-yl)oxy)ethyl)benzoyl)piperidin-4-yl)oxy)piperidin-1-yl)ethoxy)isoxazol-5-yl)-3-methylbutanoyl)-4-hydroxy-N-((S)-1-(4-(4-methylthiazol-5-yl)phenyl)ethyl)pyrrolidine-2-carboxamide]: at HiBiT-BRM, the “BRM HiBit Degradation Maximum (%)” value is given as “A (“A” indicates maximum degradation ≥75%)” and the DC50 is less than 10 nM. In addition, on HiBit-BRG1, the DC50 is more than 100 nM and the Dmax is more than 50%.

On to `Nc1nnc(-c2ccccc2O)cc1OCCc1ccc(CNCCN2CCN(c3cccc4c3C(=O)N(C3CCC(=O)NC3=O)C4=O)CC2)cc1` (stereo not shown) [Compound 110, 4-[4-[2-([[4-(2-[[3-amino-6-(2-hydroxyphenyl)pyridazin-4-yl]oxy]ethyl)phenyl]methyl]amino)ethyl]piperazin-1-yl]-2-(2,6-dioxopiperidin-3-yl)isoindole-1,3-dione], for which, on HiBiT-BRM, the “BRM HiBit Degradation Maximum (%)” value is on record as “A (“A” indicates maximum degradation ≥75%)” and the DC50 is more than 10 nM. Also, on HiBit-BRG1, the DC50 was more than 100 nM and the Dmax is more than 50%.

For `Cc1ncsc1-c1ccc(CNC(=O)[C@@H]2C[C@@H](O)CN2C(=O)[C@@H](NC(=O)CCCCCCCCCNC(=O)c2ccc(CCNc3cc(-c4ccccc4O)nnc3N)cc2)C(C)(C)C)cc1` [Compound 134, (2S,4R)-1-[(2S)-2-(10-[[4-(2-[[3-amino-6-(2-hydroxyphenyl)pyridazin-4-yl]amino]ethyl)phenyl]formamido]decanamido)-3,3-dimethylbutanoyl]-4-hydroxy-N-[[4-(4-methyl-1,3-thiazol-5-yl)phenyl]methyl]pyrrolidine-2-carboxamide], on HiBiT-BRM, the “BRM HiBit Degradation Maximum (%)” value is recorded as “B (“B” indicates maximum degradation ≥50%)” and the DC50 was more than 100 nM. At HiBit-BRG1, the DC50 is more than 1000 nM and the Dmax was less than 50%.

For `Cc1ncsc1-c1ccc(CNC(=O)[C@@H]2C[C@@H](O)CN2C(=O)[C@@H](NC(=O)CCN2CCC3(CCN(CCC(=O)NCc4ccc(CCOc5cc(-c6ccccc6O)nnc5N)cc4)CC3)CC2)C(C)(C)C)cc1` [Compound 252, (2S,4R)-1-((S)-2-(3-(9-(3-((4-(2-((3-amino-6-(2-hydroxyphenyl)pyridazin-4-yl)oxy)ethyl)benzyl)amino)-3-oxopropyl)-3,9-diazaspiro[5.5]undecan-3-yl)propanamido)-3,3-dimethylbutanoyl)-4-hydroxy-N-(4-(4-methylthiazol-5-yl)benzyl)pyrrolidine-2-carboxamide], at HiBiT-BRM, the “BRM HiBit Degradation Maximum (%)” value is given as “C (“C” indicates maximum degradation <50%)” and the DC50 is more than 1000 nM. Further, on HiBit-BRG1, the DC50 is more than 1000 nM and the Dmax is less than 50%.

As to `Nc1nnc(-c2cc(F)ccc2O)cc1OCCc1ccc(CNCCCCCOc2cccc3c2C(=O)N(C2CCC(=O)NC2=O)C3=O)cc1` (stereo not shown) [Compound 118, 4-[[5-([[4-(2-[[3-amino-6-(5-fluoro-2-hydroxyphenyl)pyridazin-4-yl]oxy]ethyl)phenyl]methyl]amino)pentyl]oxy]-2-(2,6-dioxopiperidin-3-yl)isoindole-1,3-dione;formic acid salt], on HiBiT-BRM, the “BRM HiBit Degradation Maximum (%)” value is “B (“B” indicates maximum degradation ≥50%)” and the DC50 was more than 100 nM. Moreover, at HiBit-BRG1, the DC50 was more than 1000 nM and the Dmax was less than 50%.

Turning to `Cc1ncsc1-c1ccc(CNC(=O)[C@@H]2C[C@@H](O)CN2C(=O)[C@@H](NC(=O)CCN2CCC3(CC2)CC(C(=O)NCc2ccc(CCOc4cc(-c5ccccc5O)nnc4N)cc2)C3)C(C)(C)C)cc1` [Compound 186, N-[[4-(2-[[3-amino-6-(2-hydroxyphenyl)pyridazin-4-yl]oxy]ethyl)phenyl]methyl]-7-(2-[[(2S)-1-[(2S,4R)-4-hydroxy-2-([[4-(4-methyl-1,3-thiazol-5-yl)phenyl]methyl]carbamoyl)pyrrolidin-1-yl]-3,3-dimethyl-1-oxobutan-2-yl]carbamoyl]ethyl)-7-azaspiro[3.5]nonane-2-carboxamide], on HiBiT-BRM, the “BRM HiBit Degradation Maximum (%)” value is listed as “C (“C” indicates maximum degradation <50%)” and the DC50 is more than 1000 nM. For the same compound, at HiBit-BRG1, the DC50 was more than 1000 nM and the Dmax is less than 50%.
